Assay results from PubChem BioAssay AID330 (DTP/NCI, 2004).
Where “and” joins values, the source holds several entries; their conditions need not be identical. Equal values may be shown once. Toxic doses and inconclusive results are not listed.

Tested on: P388 leukemia ip, CD2F1 mice, survival T/C
Assay: NCI In Vivo Anticancer Drug Screen. Data for tumor model P388 Leukemia (intraperitoneal) in CD2F1 (CDF1) mice
Conditions: endpoint: median survival time, higher = longer survival
Procedure, shortened: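 Mice carrying the transplanted tumor received test compound or vehicle. Survival was recorded in each group, and the value is the treated-group measurement divided by that of the vehicle-treated control group.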

[1] = dose: 50.0 mg/kg/injection, schedule: Q01DX005 (ip), vehicle: saline with Tween-80
[2] = dose: 60.0 mg/kg/injection, schedule: Q01DX005 (ip), vehicle: saline with Tween-80
[3] = dose: 120.0 mg/kg/injection, schedule: Q01DX005 (ip), vehicle: saline with Tween-80
[4] = dose: 240.0 mg/kg/injection, schedule: Q01DX005 (ip), vehicle: saline with Tween-80
[5] = dose: 100.0 mg/kg/injection, schedule: Q04DX002 (ip), vehicle: saline with Tween-80
[6] = dose: 200.0 mg/kg/injection, schedule: Q04DX002 (ip), vehicle: saline with Tween-80

For `CCCCN(CCCC)CC(C)(C)C(O)c1ccc(OC)c2ccccc12` (centres undefined), the T/C (dose: 12.5 mg/kg/injection, schedule: Q01DX005 (ip), vehicle: saline with Tween-80) was 106 % of control, the T/C (dose: 25.0 mg/kg/injection, schedule: Q01DX005 (ip), vehicle: saline with Tween-80) was 106 % of control and the T/C [1] was 101 % of control and 103 % of control.

In the case of `N#CNC(=O)c1ccc(C(=O)NC#N)cc1`, the T/C [1] is reported as 98 % of control, the T/C (dose: 100.0 mg/kg/injection, schedule: Q01DX005 (ip), vehicle: saline with Tween-80) is reported as 98 % of control and the T/C (dose: 200.0 mg/kg/injection, schedule: Q01DX005 (ip), vehicle: saline with Tween-80) is reported as 90 % of control.

With `CCOC(=O)C1=NN(c2ccccc2)C(C(=O)OC)[C@@H]1C(=O)OC` (some centres undefined) the T/C [2] was 99 % of control, the T/C [3] was 98 % of control and the T/C [4] was 96 % of control.

With `CCn1cc(C(=O)O)c(=O)c2ccc(C)[n+](CCSC(=N)N)c21` the T/C [5] was 104 % of control, the T/C [6] was 99 % of control and the T/C (dose: 400.0 mg/kg/injection, schedule: Q04DX002 (ip), vehicle: saline with Tween-80) was 100 % of control.

For `Cc1cc(Cl)ccc1N=C(N)N`, the T/C (dose: 12.5 mg/kg/injection, schedule: Q01DX009 (ip), vehicle: saline with Tween-80) was 100 % of control, the T/C (dose: 25.0 mg/kg/injection, schedule: Q01DX009 (ip), vehicle: saline with Tween-80) was 101 % of control and the T/C (dose: 50.0 mg/kg/injection, schedule: Q01DX009 (ip), vehicle: saline with Tween-80) was 99 % of control and 107 % of control.

For `O=P(OCC(Br)CBr)(OCC(Br)CBr)OCC(Br)CBr` (centres undefined), the T/C (dose: 100.0 mg/kg/injection, schedule: Q01DX009 (ip), vehicle: saline with Tween-80) was 112 % of control and 114 % of control, the T/C (dose: 200.0 mg/kg/injection, schedule: Q01DX009 (ip), vehicle: saline with Tween-80) was 106 % of control and 109 % of control and the T/C (dose: 400.0 mg/kg/injection, schedule: Q01DX009 (ip), vehicle: saline with Tween-80) was 103 % of control and 106 % of control. For the same compound, the T/C (dose: 800.0 mg/kg/injection, schedule: Q01DX009 (ip), vehicle: saline with Tween-80) was 109 % of control and 94 % of control.

`CCOP(=S)(Nc1ccc(F)cc1F)OCC` was tested, and the T/C [5] was 113 % of control and the T/C [6] was 95 % of control.

In the case of `N#CC1C(=O)NC(=S)NC1c1ccc(Cl)cc1` (centres undefined), the T/C (dose: 50.0 mg/kg/injection, schedule: Q01DX009 (ip), vehicle: Klucel (hydroxypropylcellulose) (HPC)) is reported as 94 % of control and the T/C (dose: 100.0 mg/kg/injection, schedule: Q01DX009 (ip), vehicle: Klucel (hydroxypropylcellulose) (HPC)) is reported as 101 % of control.

For `CC(C)COC1CN=NN1/C=C1\CCOC1=O` (centres undefined), the T/C [2] was 102 % of control, the T/C [3] was 107 % of control and the T/C [4] was 100 % of control.

`CCCCCCCCCCCCCCCCCC[N+]1(CCC(C)C)CCSCC1` was tested, and the T/C (dose: 100.0 mg/kg/injection, schedule: Q01DX001 (ip), vehicle: saline with Tween-80) was 88 % of control and the T/C (dose: 200.0 mg/kg/injection, schedule: Q01DX001 (ip), vehicle: saline with Tween-80) was 97 % of control.

`CC(C)NCC(O)COc1ccc(CCOC(=O)CCc2ccc(C(O)(C(F)(F)F)C(F)(F)F)cc2)cc1` (centres undefined) was tested, and the T/C (dose: 30.0 mg/kg/injection, schedule: Q01DX005 (ip), vehicle: saline with Tween-80) was 98 % of control, the T/C [2] was 96 % of control and the T/C [3] was 102 % of control.

With `N/C(=N\O)c1nc2c(N)nc(-c3ccccc3)nc2nc1N` the T/C (dose: 37.5 mg/kg/injection, schedule: Q01DX009 (ip), vehicle: saline with Tween-80) was 109 % of control, the T/C (dose: 75.0 mg/kg/injection, schedule: Q01DX009 (ip), vehicle: saline with Tween-80) was 95 % of control and the T/C (dose: 150.0 mg/kg/injection, schedule: Q01DX009 (ip), vehicle: saline with Tween-80) was 97 % of control.

With `COc1ccc(C2=C[P+](c3ccccc3)(c3ccccc3)C=C(c3ccccc3)O2)cc1` the T/C (dose: 0.75 mg/kg/injection, schedule: Q01DX005 (ip), vehicle: saline with Tween-80) was 100 % of control and 110 % of control, the T/C (dose: 0.75 mg/kg/injection, schedule: Q01DX005 (ip), vehicle: saline) was 120 % of control and the T/C (dose: 1.5 mg/kg/injection, schedule: Q01DX005 (ip), vehicle: saline with Tween-80) was 108 % of control and 119 % of control. The T/C (dose: 1.5 mg/kg/injection, schedule: Q01DX005 (ip), vehicle: saline) was 110 % of control, the T/C (dose: 3.0 mg/kg/injection, schedule: Q01DX005 (ip), vehicle: saline with Tween-80) was 110 % of control and 120 % of control and the T/C (dose: 3.0 mg/kg/injection, schedule: Q01DX005 (ip), vehicle: saline) was 120 % of control. For the same compound, the T/C (dose: 3.12 mg/kg/injection, schedule: Q01DX005 (ip), vehicle: saline with Tween-80) was 114 % of control, the T/C (dose: 6.0 mg/kg/injection, schedule: Q01DX005 (ip), vehicle: saline with Tween-80) was 111 % of control and the T/C (dose: 6.25 mg/kg/injection, schedule: Q01DX005 (ip), vehicle: saline with Tween-80) was 118 % of control.

For `COc1cccc2c1C(=O)c1c(O)c3c(c(O)c1C2=O)C[C@@](O)(C(C)=O)C[C@@H]3OC1CC(N(C)Cc2ccccc2)C(O)C(C)O1` (some centres undefined), the T/C (dose: 3.13 mg/kg/injection, schedule: Q04DX003 (ip), vehicle: distilled water + Tween-80) was 111 % of control, the T/C (dose: 6.25 mg/kg/injection, schedule: Q04DX003 (ip), vehicle: distilled water + Tween-80) was 101 % of control and the T/C (dose: 12.5 mg/kg/injection, schedule: Q04DX003 (ip), vehicle: distilled water + Tween-80) was 118 % of control. For the same compound, the T/C (dose: 25.0 mg/kg/injection, schedule: Q04DX003 (ip), vehicle: distilled water + Tween-80) was 172 % of control.

With `c1ccc2cc3n[se]nc3cc2c1` the T/C [2] was 100 % of control and the T/C [3] was 90 % of control.
